According to patent US20090118204A1, “Methods and Compositions Related to Esculentoside A” (UNIVERSITY OF ROCHESTER, priority 2004, published 2009):
“Also recorded” adds a separate entry of the source. Like-named read-outs stand apart in the source and are kept apart here.

Assays:
C57BL/6 mice [1] = assay: IR-induced early soft tissue (skin) toxicity in mice; format: in vivo, mouse; conditions: for skin damage score: day 19 after 30 Gy single dose IR, EsA 10 mg/kg i.p., Celebrex 50 mg/kg intragastric, 16 h before then daily, Table 4 criteria 1.0 normal to 5.0 necrosis, control above 4.5
Description: EsA protects the soft tissue from IR-induced damage. IR sensitive and IL1β high expressing C57BL/6 mice are irradiated with 30 Gy and the skin damage is measured with a preclinical criteria (Table 4).
The effect of EsA was examined with this model system. […] The difference was statistically significant (FIG. 7).
A repeat experiment was performed with an increased number of mice (10 mice/group), and the EsA protective effect was confirmed.

ICAM-1 and CD18 = conditions: LPS-induced; cited from earlier work
murine ears = conditions: induced by zylene, acute inflammation model; cited from earlier work
NO production in THP-1 = assay: IR-induced NO production in THP-1; format: cell-based, human; conditions: 0.1, 0.5 and 5 μg/ml EsA; NO up-regulated 5 fold 4 hours after IR
Description: (§1) The anti-tumor effectiveness of IR is based in part on triggering the reactive oxygen species and free radicals in tumors; meanwhile, IR also damages normal tissues and causes unwanted toxicity.
(§2) The study was carried out in Raw264.7 cells that were irradiated with 0, 2, 4 and 8 Gy. […] At this optimal condition, EsA (0.5 or 5 μg/ml) was added 8 hours before the IR at 4 Gy and 24 hours later, the media was harvested and 100 μl of media was measured for NO content in the form of nitrite. […] To see if this inhibition was cell line specific, another human macrophage cell line THP-1 was examined.

activated thymocytes = conditions: cited from earlier work
rat hind paws = conditions: cited from earlier work; for swelling of hind paws: induced by carrageenan
peritoneal macrophages = conditions: macrophages from mice pretreated with thioglycolate; cited from earlier work
[2] = tested on: TNF production by Raw264.7; assay: TNF production by macrophages with LPS and radiation; format: cell-based, mouse; conditions: FIG. 31, LPS and radiation
[3] = tested on: granuloma induced by cotton pellet; conditions: cited from earlier work
ovine COX-1 = target: T1, ovine COX-1 (Ovis aries, UniProt P05979); assay: Cayman COX Inhibitor Screening Assay, COX-1; format: biochemical; conditions: prostanoid quantified by EIA
T1 construct: purchased Cayman 560131
From the text: (§3) It is known that constitutive COX-1 and inducible COX-2 catalyze the production of prostaglandins (PGs) from arachidonic acid. The Cayman COX Inhibitor Screening Assay kit directly measures PGF2α produced by SnCl2 reduction of COX-derived PGH2. The prostanoid product is quantified via enzyme immunoassay (EIA) using a broadly specific antibody that binds to all the major prostaglandin compounds (FIG. 15A). To distinguish the inhibition of COX-1 from COX-2, both ovine COX-1 and human recombinant COX-2 enzymes were used as targets. […] EsA is a novel COX-2 inhibitor, which accounts for its observed protective effects on skin (FIGS. 5-7) and brain (FIGS. 8-9).

mice = conditions: following LPS challenge; cited from earlier work
[4] = tested on: IL1β production in Raw 264.7 macrophage cells; assay: IR-induced IL1β production (ELISA) in Raw 264.7; format: cell-based, mouse; conditions: 2 Gy, 24 hours culture
Description: IL1β is crucial mediator in early IR toxicity of both brain and soft tissue. […] The protective effect of EsA on early IR toxicity results in part from this effect. First we determined the optimal IR dose to induce IL1 production in Raw 264.7 macrophage cells. Equal numbers of cells were exposed to 0, 2, 4 and 8 Gy IR and 24 hours later, the conditioned media were harvested and 100 μl of media from each sample was measured for IL1β concentration by specific IL1β ELISA using monoclonal antibodies (purchased from R&D Systems, Inc). […] Therefore, 2 Gy was used as optimal IR dose for Raw 264.7 for this set of tests. The cells were treated with 0.1 or 1 μg/ml of EsA for 18 hours, irradiated at 2Gy and then cultured for another 24 hours. The media were measured for protein level of IL1β by ELISA.

[5] = tested on: IL1α production by RAW264.7; assay: IL1α production by macrophages; format: cell-based, mouse; conditions: FIG. 29, in vitro macrophages
E8.2.A3 cells = assay: Morphological changes and cell death in reporter cells; format: cell-based, mouse; conditions: 44 hours, observed twice a day
activated macrophages = conditions: cited from earlier work
[6] = target: T2, glucocorticoids receptor (GR) (Mus musculus, UniProt P06537); assay: CAT reporter assay for hormone transactivity in E8.2.A3 cells, GR; format: cell-based; conditions: 44 hours; EsA 0.4 ng/ml to 40000 μg/ml; Dex 5×10^−7 M
T2 construct: expressed in transfected cells
Description: (§4) Structurally, EsA has a certain similarity with steroidal hormone, especially a steroid-like back-bone. […] A sensitive reporter system for the hormone transactivity of glucocorticoids receptor (GR) and androgen receptor (AR) was set up as elucidated in the chart (FIG. 12). […] Individual clones with stably transfected mGR and CAT reporter gene were selected with 400 μg/ml of G418 in DMEM medium containing 3% charcoal stripped new born calf serum. […] The treated cells were washed with phosphate buffer saline (PBS) once. To each well, 0.25 ml of 0.25M Tris-HCl was added. The plates underwent 3 cycles of freeze and thaw at −70° C. and room temperature followed by heating at 65° C. for 10 min by floating the plates in a hot water bath. Then, 0.1 ml of cell lysate from each well was used for the CAT assay. […] Briefly, 100 μl of cell lysate from each well were mixed with 150 μl reaction solution (128 μl of 0.25 M Tris-HCl, pH 7.8, 2 μl of the commercial ^3H-acetyl CoA and 20 μl of 2 mg/ml chloramphenicol) in the scintillation vials. To each vial, 2 ml non-aqueous scintillation fluid was added and mixed with the reaction by shaking or vortexing. The vials were counted 3-6 times in a scintillation counter at regular intervals over 1 to 4 hours.

[7] = tested on: VEGF production by mouse fibroblast L-929; assay: VEGF production by fibroblasts; format: cell-based; conditions: FIG. 10
mouse = assay: Alopecia and hair regrowth after 30 Gy irradiation; format: in vivo
[8] = tested on: autoimmunity animal model; conditions: in vivo; cited from earlier work
[9] = tested on: prostaglandin E2 (PGE2), platelet-activating factor (PAF), and nitric oxide (NO); conditions: cited from earlier work
C57BL/6 mice [10] = conditions: 40 Gy whole head; EsA 10 mg/kg i.p., Dex 3 mg/kg i.v. before IR; brains taken 24 h later; P<0.05
Description: 16 hour before the whole heads of mice were irradiated at 40 Gy.
The mice without radiation served as negative controls. Twenty four hours later, the whole brain was taken out, weighed (wet weight), placed on aluminum foil and placed in an oven at 60° C. At different time points (10 min intervals for the first 2 hours and then 4, 6, 24 hr), the brains were weighed, and the results were expressed as: % water={(wet weight−dry weight)/wet weight}×100%. The higher the % water, the greater the severity of edema. Brain % water as a function of time provided a brain drying curve.

[11] = tested on: NO production in Raw264.7; assay: IR-induced NO production (nitrite, Griess) in Raw264.7; format: cell-based, mouse; conditions: EsA 0.5 or 5 μg/ml added 8 hours before 4 Gy; media 24 hours later
Description: as §1, §2

human recombinant COX-2 = target: T3, human recombinant COX-2 (Homo sapiens, UniProt P35354); assay: Cayman COX Inhibitor Screening Assay, COX-2; format: biochemical; conditions: prostanoid quantified by EIA
T3 construct: purchased Cayman 560131
From the text: as §3

[12] = tested on: Lewis' lung carcinoma cells; assay: Tumor growth of Lewis' lung carcinoma in syngeneic mice; format: in vivo, mouse; conditions: daily for 20 days, same dose as in soft tissue protection
From the text: Considering that EsA is used as a radioprotector in patients with tumors, its effect on tumor growth is a critical issue for its application.

activated splenocytes = conditions: cited from earlier work
[13] = tested on: IL1β production in A431 human epidermoid carcinoma cells; assay: IR-induced IL1β production (ELISA) in A431; format: cell-based
[14] = cited from earlier work
androgen receptor (AR) = target: T4, androgen receptor (AR) (Mus musculus, UniProt P19091); assay: CAT reporter assay for hormone transactivity in E8.2.A3 cells, AR; format: cell-based; conditions: 44 hours; EsA 0.4 ng/ml to 40000 μg/ml; DHT 5×10^−7 M
T4 construct: contain high levels of AR; endogenous in cells; host or cells: E8.2.A3 cells (mouse L cell fibroblast variant)
Description: as §4

sensitized mice = conditions: mouse, in vivo; cited from earlier work
IR brain edema = conditions: cited from earlier work
COX-2 transgenic mice = conditions: mouse, in vivo; cited from earlier work
[15] = relative long-term use (>2-3 weeks after IR)

T4 sequence (P19091 whole entry): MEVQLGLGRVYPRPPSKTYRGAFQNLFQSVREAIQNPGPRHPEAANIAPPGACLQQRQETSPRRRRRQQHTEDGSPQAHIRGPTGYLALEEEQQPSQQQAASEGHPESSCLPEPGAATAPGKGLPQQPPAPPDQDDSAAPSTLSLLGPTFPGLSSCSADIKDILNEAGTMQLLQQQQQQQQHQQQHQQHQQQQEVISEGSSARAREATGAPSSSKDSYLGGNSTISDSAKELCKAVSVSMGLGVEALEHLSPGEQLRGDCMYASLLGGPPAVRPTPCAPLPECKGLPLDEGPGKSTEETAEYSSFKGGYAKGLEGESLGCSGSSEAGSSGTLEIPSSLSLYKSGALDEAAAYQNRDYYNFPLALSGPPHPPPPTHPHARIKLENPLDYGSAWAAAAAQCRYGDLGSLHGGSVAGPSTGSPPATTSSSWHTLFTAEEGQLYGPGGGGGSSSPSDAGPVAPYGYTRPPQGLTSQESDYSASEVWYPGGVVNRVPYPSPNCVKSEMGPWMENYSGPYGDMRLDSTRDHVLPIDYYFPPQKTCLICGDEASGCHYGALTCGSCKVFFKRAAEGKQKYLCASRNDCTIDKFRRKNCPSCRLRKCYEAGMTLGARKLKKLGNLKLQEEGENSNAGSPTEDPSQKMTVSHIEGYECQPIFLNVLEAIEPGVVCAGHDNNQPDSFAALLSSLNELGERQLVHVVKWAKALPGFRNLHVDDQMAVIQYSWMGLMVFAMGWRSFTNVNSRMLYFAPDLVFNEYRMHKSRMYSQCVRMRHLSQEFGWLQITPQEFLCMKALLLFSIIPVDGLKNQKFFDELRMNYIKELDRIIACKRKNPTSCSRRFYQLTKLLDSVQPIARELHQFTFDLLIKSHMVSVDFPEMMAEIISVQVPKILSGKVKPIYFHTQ
T2 sequence (P06537 whole entry): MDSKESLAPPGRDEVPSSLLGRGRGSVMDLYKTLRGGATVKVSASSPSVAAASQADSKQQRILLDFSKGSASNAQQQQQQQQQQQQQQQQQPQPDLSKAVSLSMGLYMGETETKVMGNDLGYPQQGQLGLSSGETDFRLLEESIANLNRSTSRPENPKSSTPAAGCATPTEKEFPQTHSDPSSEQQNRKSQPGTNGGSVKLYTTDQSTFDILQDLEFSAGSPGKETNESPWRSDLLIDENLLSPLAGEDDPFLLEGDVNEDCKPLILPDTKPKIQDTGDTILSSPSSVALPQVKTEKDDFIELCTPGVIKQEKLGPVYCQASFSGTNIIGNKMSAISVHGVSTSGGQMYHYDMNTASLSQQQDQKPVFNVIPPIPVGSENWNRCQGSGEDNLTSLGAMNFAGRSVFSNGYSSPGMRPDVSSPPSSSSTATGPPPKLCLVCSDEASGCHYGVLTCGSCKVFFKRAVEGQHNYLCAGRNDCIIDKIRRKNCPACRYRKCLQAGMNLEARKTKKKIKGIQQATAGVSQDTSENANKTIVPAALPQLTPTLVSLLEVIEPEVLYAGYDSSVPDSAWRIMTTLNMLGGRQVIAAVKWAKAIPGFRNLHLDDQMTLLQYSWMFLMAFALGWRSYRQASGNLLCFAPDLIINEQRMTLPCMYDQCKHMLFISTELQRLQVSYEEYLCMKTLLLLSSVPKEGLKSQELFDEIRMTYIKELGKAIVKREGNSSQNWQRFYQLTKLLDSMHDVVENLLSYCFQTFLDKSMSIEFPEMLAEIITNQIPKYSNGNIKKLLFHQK
T1 sequence (P05979 25-600): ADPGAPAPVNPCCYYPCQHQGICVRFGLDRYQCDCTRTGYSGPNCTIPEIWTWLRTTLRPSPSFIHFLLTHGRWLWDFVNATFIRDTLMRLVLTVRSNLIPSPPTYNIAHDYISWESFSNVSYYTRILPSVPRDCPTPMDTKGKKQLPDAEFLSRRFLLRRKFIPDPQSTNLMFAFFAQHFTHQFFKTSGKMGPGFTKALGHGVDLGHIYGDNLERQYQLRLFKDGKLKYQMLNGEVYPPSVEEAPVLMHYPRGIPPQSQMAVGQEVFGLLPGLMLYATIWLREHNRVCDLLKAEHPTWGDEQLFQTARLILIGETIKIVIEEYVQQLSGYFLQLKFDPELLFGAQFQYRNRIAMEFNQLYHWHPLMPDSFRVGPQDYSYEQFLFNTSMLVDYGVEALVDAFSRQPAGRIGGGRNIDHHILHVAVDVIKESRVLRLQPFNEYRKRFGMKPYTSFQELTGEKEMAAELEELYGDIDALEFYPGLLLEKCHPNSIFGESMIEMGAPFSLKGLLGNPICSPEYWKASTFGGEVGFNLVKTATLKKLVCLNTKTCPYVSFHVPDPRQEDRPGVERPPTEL
T3 sequence (P35354 18-604): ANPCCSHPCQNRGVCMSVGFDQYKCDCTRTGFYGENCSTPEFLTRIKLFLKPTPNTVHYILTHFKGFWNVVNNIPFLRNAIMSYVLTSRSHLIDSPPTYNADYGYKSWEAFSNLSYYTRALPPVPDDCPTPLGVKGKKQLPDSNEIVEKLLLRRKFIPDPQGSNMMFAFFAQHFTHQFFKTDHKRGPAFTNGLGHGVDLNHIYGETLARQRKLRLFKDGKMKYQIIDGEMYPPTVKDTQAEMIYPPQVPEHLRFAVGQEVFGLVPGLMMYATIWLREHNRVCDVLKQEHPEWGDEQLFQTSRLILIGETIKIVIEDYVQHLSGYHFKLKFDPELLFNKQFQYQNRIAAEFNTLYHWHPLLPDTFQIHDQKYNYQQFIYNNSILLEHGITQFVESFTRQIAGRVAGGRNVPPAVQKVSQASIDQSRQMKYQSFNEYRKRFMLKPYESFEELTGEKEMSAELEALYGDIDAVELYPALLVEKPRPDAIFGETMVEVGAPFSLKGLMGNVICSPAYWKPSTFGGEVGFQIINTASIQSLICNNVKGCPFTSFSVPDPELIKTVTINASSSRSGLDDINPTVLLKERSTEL

Cc1ccc(-c2cc(C(F)(F)F)nn2-c2ccc(S(N)(=O)=O)cc2)cc1 [Celebrex, celecoxib, reference compound]
skin damage score (C57BL/6 mice [1]): about 3

COC(=O)[C@@]1(C)CC[C@]2(C(=O)O)CC[C@]3(C)C(=CC[C@@H]4[C@@]5(C)C[C@H](O)[C@H](O[C@@H]6OC[C@@H](O[C@@H]7O[C@H](CO)[C@@H](O)[C@H](O)[C@H]7O)[C@H](O)[C@H]6O)[C@@](C)(CO)[C@@H]5CC[C@]43C)[C@@H]2C1 [EsA, Esculentoside A]
expression of adhesion molecules ICAM-1 and CD18 (ICAM-1 and CD18): suppressed | swelling of ears (murine ears): markedly lowered | reduction of NO production (NO production in THP-1): 3 fold | protection of soft tissue (C57BL/6 mice [1]; 4 weeks after 30 Gy IR, same dosing): effectively protected the soft tissue | skin damage score (C57BL/6 mice [1]): about 2 | early IR skin toxicity (C57BL/6 mice [1]; [15]): prevented | second wave of IL1β (C57BL/6 mice [1]; [15]): blocked | signs of sickness (C57BL/6 mice [1]; whole course of EsA treatment): no signs of sickness were observed | apoptosis of activated thymocytes (activated thymocytes): accelerated | duration of the effects (rat hind paws; acute inflammation models): more than 5 hours | swelling of hind paws (rat hind paws; adrenalectomised rat): suppressed | swelling of hind paws (rat hind paws): inhibited | release of TNF, IL-1 and IL-6 (peritoneal macrophages): significantly reduced | TNF production [2]: inhibitory effect | proliferation of granuloma [3]: significantly inhibited | effect on COX-1 (ovine COX-1): no effect | TNF, IL-1 and IL-6 levels in the sera (mice): dose-dependently decreased | IR-induced production of IL1β ([4]; EsA 0.1 μg/ml for 18 hours): dramatically inhibited; also recorded: reduced | IR-induced production of IL1β ([4]; EsA 1 μg/ml for 18 hours, P<0.01): reduced the IL1β to the basal level | IL1α production [5]: inhibitory effect | concentration at which death of cells was observed (E8.2.A3 cells): 40000 µg/mL | concentration with no morphological change of cells (E8.2.A3 cells): below 4 mg/ml | macrophage functions (phagocytosis, antibody production, secretion of cytokines) (activated macrophages): diminished | glucocorticoidal hormone transactivity (CAT activity) [6]: neither androgen nor glucocorticoidal hormone transactivity | VEGF production [7]: inhibitory effect | hair regrowth / duration of alopecia (mouse; 30 Gy, Celebrex i.g. 50 mg/kg for 20 days): after two weeks | recovery of cranial alopecia (mouse; EsA compared with celebrex): recovered more quickly and completely | inflammation of joint and viscera [8]: decreased | production of PGE2, PAF and NO [9]: inhibited | brain edema (% water) (C57BL/6 mice [10]): reduction of brain edema was statistically significant; also recorded: less extensive brain edema; also recorded: can reduce IR-induced brain edema | IR-induced NO production [11]: inhibited | effect on COX-2 (human recombinant COX-2): inhibited the COX-2 in a dose-dependent manner | tumor growth [12]: little effect on tumor growth | production of IL-2 (activated splenocytes): inhibited | IL1β induced by IR ([13]; EsA 0.1 μg/ml, 4 Gy, P<0.01): inhibited; also recorded: reduced | IL1β production induced by IR in vitro in epithelial cells ([13]; FIG. 27): inhibitory effect | water-solubility [14]: high water-solubility | androgen hormone transactivity (CAT activity) (androgen receptor (AR)): neither androgen nor glucocorticoidal hormone transactivity | serum hemolysin concentration (sensitized mice): markedly decreased

CS(=O)(=O)Nc1ccc([N+](=O)[O-])cc1OC1CCCCC1 [NS-398]
induction of prostanoid and IR brain edema (IR brain edema; Moore et al. 2004): blocked | IR toxicity in brain and soft tissue (IR brain edema; mouse, in vivo): protected

COc1ccc2c(c1)c(CC(=O)O)c(C)n2C(=O)c1ccc(Cl)cc1 [indomethacin]
microvessel density (COX-2 transgenic mice): strongly decreased | tumor progression (COX-2 transgenic mice): inhibited | upregulation of angiogenic regulatory genes in mammary tissue (COX-2 transgenic mice): inhibited
